Laboratory results reported in patent publication US20260294769A1, “ASCORBIC ACID DERIVATIVES AND COSMETIC THEREOF” (SEIWA KASEI COMPANY, LIMITED, priority 2023, published 2026).

Experiments:
[1] = Stability Test-2: residual rate in cream of pH 7 or 9 stored at 50° C.; type: physicochemical
How it was run: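 Each test sample was formulated into a cream adjusted to pH 7 or 9: components (a) and (b) were heated and mixed separately, cooled, and then component (c) was added. The cream was held at 50° C., and the percentage of the sample compound still present (residual rate) was determined after storage.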

[2] = Stability Test-2: odor of cream stored at 50° C.; type: physicochemical; conditions: 10 panelists
How it was run: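 Test creams were made by heating and mixing components (a) and (b), cooling, then adding component (c) to give a pH of 7 or 9. After storage at 50° C., 10 panelists scored odor: 3 almost odorless, 2 slight strange odor, 1 strong odor. Totals were graded ◯ (25 or more), Δ (16-24) or x (15 or less).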

[3] = Stability Test-2: coloration of cream stored at 50° C.; type: physicochemical; conditions: 10 panelists
How it was run: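 Creams were made by heating and mixing parts (a) and (b), cooling, then adding part (c), adjusting pH to 7 or 9. After storage at 50° C., ten panelists scored coloration against the freshly prepared cream: 3 for almost no change, 2 for color change, 1 for strong coloration.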

[4] = test system: Normal human dermal fibroblasts; test: Collagen production promoting effect (ELISA of free collagen in supernatant); type: cell-based; conditions: 10 mM or less, 48 hours, control group set to 100%, N=3
Description: Normal human dermal fibroblasts were prepared in D-MEM containing 5% (v/v) fetal bovine serum to a cell density of 2.5×10^4 cells/well, and then pre-incubated for 24 hours on a 96-well plate. After removing the medium, samples prepared to a predetermined concentration in D-MEM containing 5% (v/v) fetal bovine serum were added to each well and cultured for 48 hours. After the culture was completed, the amount of free collagen in the supernatant was quantified by ELISA. Measurements were performed in triplicate (N=3).
The amount of collagen produced when the sample was measured at a concentration of 10 mM or less was compared with that of the control group, and the results (% values when the control group was set to 100%) are shown in Table 17 based on the following criteria.

[5] = test system: Normal human dermal fibroblasts (NHDF); test: Hyaluronic acid production promoting effect (ELISA of hyaluronic acid in supernatant); type: cell-based; conditions: 10 mM or less, 48 hours, control group set to 100%, N=3
How it was run: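 NHDF seeded at 2.5×10^4 cells/well in D-MEM with 5% FBS, pre-incubated 24 h, then exposed to samples in serum-free D-MEM for 48 h. Supernatant hyaluronic acid measured by ELISA in triplicate, expressed as % of control (100%) at ≤10 mM sample.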

[6] = test system: Normal human epidermal keratinocytes; test: Antioxidant effect: ROS production inhibition rate (DCFHDA, H2O2); type: cell-based; conditions: 10 mM or less, 24 hours incubation, 0.2 mM H2O2, N=4
Description: Normal human epidermal keratinocytes were seeded onto a 96-well plate using KG2 medium at a cell density of 2.0×10^4 cells/well. After 24 hours of pre-incubation, samples adjusted to a predetermined concentration in KG2 medium were added to each well. After 24 hours of incubation, the medium was removed, followed by washing with HBSS(−) and the incorporation of the ROS-reactive fluorescent probe DCFHDA for 30 minutes. The cells were again washed with HBSS(−), treated with 0.2 mM H2O2, and incubated for 2 hours. The fluorescence intensity was measured, and the amount of ROS produced per unit protein was calculated by dividing the fluorescence intensity by the amount of protein quantified by the BCA method, resulting in an analytical value of 1. Furthermore, the amount of ROS production calculated without adding the sample adjusted to a predetermined concentration using the above test method was set to analytical value 2; and the amount of ROS production calculated without adding the sample or 0.2 mM H2O2 was set to analytical value 3.
ROS production inhibition rate (%) was calculated using the following formula. The higher the ROS production inhibition rate, the greater the antioxidant effect can be evaluated to be.
The ROS production inhibition rate when the sample was measured at a concentration of 10 mM or less was evaluated as follows. Note that the measurement was performed in N=4.

[7] = cream pH 7, 50° C., after 2 weeks, 20160 min
[8] = cream pH 7, 50° C., after 4 weeks, 40320 min
[9] = cream pH 9, 50° C., after 2 weeks, 20160 min
[10] = cream pH 9, 50° C., after 4 weeks, 40320 min

Row | SMILES | Residual Rate [1, 7] | Residual Rate [1, 8] | Residual Rate [1, 9] | Residual Rate [1, 10] | Odor ([2]; after 4 weeks) | Odor ([2]; after 2 weeks) | Coloration ([3]; after 2 weeks) | Coloration ([3]; after 4 weeks) | Collagen production-promoting effect [4] | Hyaluronic acid production-promoting effect [5] | Antioxidant effect (ROS production inhibition rate) [6]
1 | CCCC(=O)OCC(OC(=O)CCC)C1OC(=O)C2=C1OCCCCO2 (stereo not shown) [Synthesis Example 10, 5,6-O-dibutanoyl-2,3-O-(1,4-butanediyl) ascorbic acid] | ⊚ (95% or more) | ⊚ (95% or more) | ⊚ (95% or more) | ⊚ (95% or more) | Δ (Total score of 10 panelists is 16-24) | ◯ (Total score of 10 panelists is 25 or more) | ◯ (Total score of 10 panelists is 25 or more) | ◯ (Total score of 10 panelists is 25 or more) | ++ (140%<) | ++ (120%<) | + (<20%)
2 | CCCCCCCCCCCC(=O)OCC(O)C1OC(=O)C2=C1OCCCCO2 (stereo not shown) [Synthesis Example 13, 6-O-lauroyl-2,3-O-(1,4-butanediyl) ascorbic acid] | ⊚ (95% or more) | ⊚ (95% or more) | ⊚ (95% or more) | ⊚ (95% or more) | Δ (Total score of 10 panelists is 16-24) | ◯ (Total score of 10 panelists is 25 or more) | ◯ (Total score of 10 panelists is 25 or more) | ◯ (Total score of 10 panelists is 25 or more) |  | ++ (120%<) | + (<20%)
3 | CCCCCCCCCCCC(=O)OCC(OC(=O)CCCCCCCCCCC)C1OC(=O)C2=C1OCCCCO2 (stereo not shown) [Synthesis Example 14, 5,6-O-dilauroyl-2,3-O-(1,4-butanediyl) ascorbic acid] | ⊚ (95% or more) | ⊚ (95% or more) | ⊚ (95% or more) | ∘ (85% or more, less than 95%) | Δ (Total score of 10 panelists is 16-24) | ◯ (Total score of 10 panelists is 25 or more) | ◯ (Total score of 10 panelists is 25 or more) | ◯ (Total score of 10 panelists is 25 or more) |  | ++ (120%<) | + (<20%)

Now from value to compound, other results behind:

Row | Residual Rate [1, 7] | Residual Rate [1, 8] | Residual Rate [1, 9] | Residual Rate [1, 10] | Odor ([2]; after 4 weeks) | SMILES | Odor ([2]; after 2 weeks) | Coloration ([3]; after 2 weeks) | Coloration ([3]; after 4 weeks) | Collagen production-promoting effect [4] | Hyaluronic acid production-promoting effect [5] | Antioxidant effect (ROS production inhibition rate) [6]
4 | ⊚ (95% or more) | ⊚ (95% or more) | ⊚ (95% or more) | ⊚ (95% or more) | Δ (Total score of 10 panelists is 16-24) | CC(C)CCCCCCCCCCCCCCC(=O)OC[C@H](O)[C@H]1OC(=O)C2=C1OCCCCO2 [Synthesis Example 17, 6-O-isostearoyl-2,3-O-(1,4-butanediyl) ascorbic acid] | ◯ (Total score of 10 panelists is 25 or more) | ◯ (Total score of 10 panelists is 25 or more) | ◯ (Total score of 10 panelists is 25 or more) | ++ (140%<) | ++ (120%<) | + (<20%)
5 | ⊚ (95% or more) | ⊚ (95% or more) | ⊚ (95% or more) | ⊚ (95% or more) | Δ (Total score of 10 panelists is 16-24) | CCCCCCCC(=O)OCC(OC(=O)CCCCCCC)C1OC(=O)C2=C1OCCCO2 (stereo not shown) [Synthesis Example 23, 5,6-O-dioctanoyl-2,3-O-(1,3-propanediyl) ascorbic acid] | ◯ (Total score of 10 panelists is 25 or more) | ◯ (Total score of 10 panelists is 25 or more) | ◯ (Total score of 10 panelists is 25 or more) | ++ (140%<) |  | + (<20%)
